The values that follow come from paper PMC8041433 (Environmental Health Perspectives, 2021).

Where “and” joins values, the source holds several entries; their conditions need not be identical. Identical values can stand only once. Counter-ions that a name gives are not always drawn. Like-named read-outs stand apart in the source and are kept apart here.

The target of assay [1] is T1, recombinant human AChE (Homo sapiens, UniProt P22303). Nature of the assay: biochemical.
Assay [2] has as its target T1, recombinant human AChE.
Assay [3] addresses T1, recombinant human AChE. The assay is described as follows: biochemical. It is filed as biochemical.
For the next assay, the target named is AChE in SH-SY5Y cells (Homo sapiens, UniProt P22303). Nature of the assay: cell-based.
Assay [4] addresses T1, recombinant human AChE. Nature of the assay: biochemical. The conditions noted are these: IC50 (uM).
For assay [5], the target named is T1, recombinant human AChE. Nature of the assay: biochemical. The source holds these as a separate data set.
For IR or R in this document: key: Reversible (R); Irreversible (IR); ND, not detected in enzyme-based AChE inhibition assay from current study.

Chain of AChE in SH-SY5Y cells (P22303 32-614): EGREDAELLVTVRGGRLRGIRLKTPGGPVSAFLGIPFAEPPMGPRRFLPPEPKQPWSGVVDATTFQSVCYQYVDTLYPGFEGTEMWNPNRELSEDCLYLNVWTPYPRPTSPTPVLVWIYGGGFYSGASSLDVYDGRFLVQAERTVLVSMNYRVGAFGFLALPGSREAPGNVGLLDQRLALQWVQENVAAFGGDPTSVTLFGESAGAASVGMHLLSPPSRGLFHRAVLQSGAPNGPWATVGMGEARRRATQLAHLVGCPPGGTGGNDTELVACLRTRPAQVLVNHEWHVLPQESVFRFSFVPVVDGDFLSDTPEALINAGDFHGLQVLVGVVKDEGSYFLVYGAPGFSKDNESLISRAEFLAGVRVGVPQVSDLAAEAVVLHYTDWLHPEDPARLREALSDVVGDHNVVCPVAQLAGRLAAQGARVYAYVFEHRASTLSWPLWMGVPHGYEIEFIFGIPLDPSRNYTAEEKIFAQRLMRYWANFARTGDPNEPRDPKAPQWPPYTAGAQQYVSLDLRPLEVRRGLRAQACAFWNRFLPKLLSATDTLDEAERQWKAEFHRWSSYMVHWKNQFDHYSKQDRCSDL
T1 sequence (P22303 32-614): as above

In the case of `COc1cc2c(N3CCN(C(=O)Nc4ccc(OC(C)C)cc4)CC3)ncnc2cc1OCCCN1CCCCC1` [Tandutinib, reference compound], the “CC-v2 (curve classes)” value is recorded as -2.1 on recombinant human AChE [1], 4 at recombinant human AChE [2] and -2.1 at AChE in SH-SY5Y cells. Also, the Efficacy on recombinant human AChE [1] is listed as -82.501; on recombinant human AChE [2], -26.796; on recombinant human AChE [3], -90.305. At recombinant human AChE [3], the “IR or R” value is on record as “R”.

As to `CCOP(=O)(OCC)Oc1nc(Cl)c(Cl)cc1Cl` [Chlorpyrifos oxon, reference compound], the “CC-v2 (curve classes)” value on recombinant human AChE [1], on recombinant human AChE [2] and at AChE in SH-SY5Y cells was -1.1 each time. Also, the Efficacy on recombinant human AChE [1] is -95.546; on recombinant human AChE [2], -96.78. Besides, the “reversibility of AChE inhibition (result in words)” value on recombinant human AChE [3] is reported as “irreversibility”.

Regarding `CCN(CC)CCNC(=O)c1c(C)[nH]c(/C=C2\C(=O)Nc3ccc(F)cc32)c1C` [Sunitinib malate, reference compound], the “CC-v2 (curve classes)” value at recombinant human AChE [1] is reported as -1.1; on recombinant human AChE [2], -2.2; on AChE in SH-SY5Y cells, -1.1. The Efficacy at recombinant human AChE [1] is on record as -78.177; at recombinant human AChE [2] it was -53.539. On recombinant human AChE [3], the “IR or R” value was “R”.

As for `Nc1c2c(nc3ccccc13)CCCC2O.O=C(O)/C=C\C(=O)O` (stereo not drawn) [Hydroxytacrine maleate, reference compound], the “CC-v2 (curve classes)” value on recombinant human AChE [1] is listed as -1.1; at recombinant human AChE [2], -2.1; on AChE in SH-SY5Y cells, -1.1. In addition, the Efficacy at recombinant human AChE [1] was -95.079; on recombinant human AChE [2], -93.06. In addition, on recombinant human AChE [3], the “IR or R” value is “R”.

In the case of `O=C(O)CC[N+](=O)[O-]` [3-Nitropropionic acid], the 50% inhibitory concentration (IC50) (as a rule, the concentration at which inhibition is half-maximal) was 71 µM at recombinant human AChE [4]; 28.3 µM at recombinant human AChE [1] (IC50 (uM)); 8.94 µM and 11.2 µM and 2.24 µM on AChE in SH-SY5Y cells (IC50 (uM)). Moreover, the “CC-v2 (curve classes)” value at recombinant human AChE [1] is given as -2.1; on recombinant human AChE [2], -2.2. The values for the Efficacy on recombinant human AChE [1] and at recombinant human AChE [2] were -85.687 and -41.028, respectively.

`COc1ccc(OC(F)(F)F)cc1CN[C@H]1CCCN[C@H]1c1ccccc1` [CP-122721, reference compound]: at recombinant human AChE [1], the “CC-v2 (curve classes)” value amounted to 4; the Efficacy is reported as 0; the “potency (IC50), Enzyme” value is “Inactive”. Moreover, on recombinant human AChE [2], the “CC-v2 (curve classes)” value worked out at 4; the Efficacy amounted to 0; the “potency (IC50), Enzyme with microsomes” value is recorded as “Inactive”. For the same compound, the “potency (IC50), Enzyme-based assay with heat-inactivated microsomes” value at recombinant human AChE [5] is given as “Inactive”. In addition, on AChE in SH-SY5Y cells, the “CC-v2 (curve classes)” value came to 4 and the “potency (IC50), SH-SY5Y cells monolayer” value is “Inactive”.

With `O=C(CCC1CCN(Cc2ccccc2)CC1)c1ccc2c(c1)NCCCC2.O=C(O)/C=C/C(=O)O` [Zanapezil fumerate, reference compound], the “CC-v2 (curve classes)” value on recombinant human AChE [1], on recombinant human AChE [2] and on AChE in SH-SY5Y cells was -1.1 throughout. The values for the Efficacy at recombinant human AChE [1] and on recombinant human AChE [2] were -97.056 and -97.158, respectively. On recombinant human AChE [3], the “IR or R” value was “R”.

As for `CNC(=O)Oc1cccc(N=CN(C)C)c1` [Formetanate hydrochloride], the concentration at half-maximal activity (AC50) (usually the concentration giving half of the maximal activity seen) at recombinant human AChE [3] (AC50 (uM)) is 63.1 µM and 56.2 µM (2×) and 50.1 µM and 70.7 µM and 44.6 µM and 39.8 µM.
